pIC50: −log10 of the molar value. Read-outs that look alike come from different tables or passages of the source. Starred links: 1 amine or outer side, 2 acyl side, 3 side chain; linkers in the order of their positions; H or OH if unused. Non-standard residues stand in square brackets, D forms with d. Residues, ends and D or L forms follow the SMILES beside them. Groups on a side chain read outwards from the residue. *: point of attachment. Phe(4-(cis-4-COOH-cHex)) = N[C@@H](Cc1ccc([C@H]2CC[C@@H](C(=O)O)CC2)cc1)C(=O)O; Phe(4-(5-CO2H-2-pyrimidyl)) = N[C@@H](Cc1ccc(-c2ncc(C(=O)O)cn2)cc1)C(=O)O; dPro(4R-(4-pyridylmethyl)) = O=C(O)[C@H]1C[C@@H](Cc2ccncc2)CN1; Ala(piperidin-4-yl) = O=C([C@H](CC1CCN([*:3])CC1)N[*:1])[*:2]; Trp(βS-Me,4-F) = C[C@@H](c1c[nH]c2cccc(F)c12)[C@H](N)C(=O)O; 3Aminoazetidine3carboxyl = O=C(C1(N[*:1])CN([*:3])C1)[*:2]; Bip(4'-CONH2) = NC(=O)c1ccc(-c2ccc(C[C@H](N)C(=O)O)cc2)cc1; Bip(4'-COOH) = N[C@@H](Cc1ccc(-c2ccc(C(=O)O)cc2)cc1)C(=O)O; Ala(1-bicyclo(1.1.1)pentyl) = N[C@@H](CC12CC(C1)C2)C(=O)O; dPro(4R-Bzl(4-F)) = O=C(O)[C@H]1C[C@@H](Cc2ccc(F)cc2)CN1; Bip(4'-Cl) = N[C@@H](Cc1ccc(-c2ccc(Cl)cc2)cc1)C(=O)O; Ala(pyrimidin-5-yl) = N[C@@H](Cc1cncnc1)C(=O)O; Phe(4-COOH) = N[C@@H](Cc1ccc(C(=O)O)cc1)C(=O)O; Pro(cis-4-F) = O=C(O)[C@@H]1C[C@H](F)CN1; Ala(4-THP) = N[C@@H](CC1CCOCC1)C(=O)O; d(αMeF) = C[C@@](N)(Cc1ccccc1)C(=O)O; AEF = NCCOc1ccc(C[C@H](N)C(=O)O)cc1; d(αMeD) = C[C@@](N)(CC(=O)O)C(=O)O; 4Pal = N[C@@H](Cc1ccncc1)C(=O)O; Isonicotinoyl = O=C(c1ccncc1)*; aThr = C[C@H](O)[C@H](N)C(=O)O; d(αMeS) = C[C@@](N)(CO)C(=O)O; Dab = NCC[C@H](N)C(=O)O; Aib = CC(C)(N)C(=O)O; Inp = O=C(O)C1CCNCC1
Target: T1, IL-1β (Homo sapiens, UniProt P01584)
T1 construct: purchased BioLegend 579404
T1 sequence (P01584 117-269): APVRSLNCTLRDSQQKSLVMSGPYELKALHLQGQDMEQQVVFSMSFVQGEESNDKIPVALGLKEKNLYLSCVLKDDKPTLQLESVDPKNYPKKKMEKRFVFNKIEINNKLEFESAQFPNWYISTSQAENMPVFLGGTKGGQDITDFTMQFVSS
Test: IL-6 assay in MRC5 cells: inhibition of IL-1β induced IL-6 secretion (AlphaLISA)
Type: cell-based
Settings: inhibition of IL-1β induced IL-6 secretion in MRC5 cells, read-out: MRC5 IC50
Outline: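 Compound was pre-incubated 1 h at ambient temperature with recombinant human IL-1β at 2λ EC80 before adding human lung fibroblast MRC5 cells (3000/well) in EMEM with 0.025% BSA. After overnight culture at 37 °C, 5% CO2, secreted IL-6 in conditioned medium was measured by AlphaLISA; IC50 from 4-parameter logistic fits.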

[1] = compound pre-incubated 1 hour with recombinant human IL-1β

| Compound | pIC50 | pIC50 [1] |
| --- | --- | --- |
| C[C@@H](c1c[nH]c2cccc(F)c12)[C@@H]1NC(=O)[C@@H]2C[C@H](F)CN2C(=O)CNC(=O)[C@H](Cc2ccc(C(=O)O)cc2)NC(=O)[C@H](Cc2ccncc2)NC(=O)[C@H](Cc2ccc(OCCNC(=O)c3ccncc3)cc2)NC(=O)[C@H]2C[C@@H](Cc3ccncc3)CN2C(=O)CNC(=O)[C@H](CCN)NC(=O)[C@H](CCC(N)=O)NC(=O)[C@H](Cc2cncnc2)NC(=O)C(C)(C)NC(=O)[C@H](Cc2c[nH]c3ccccc23)NC(=O)[C@H](CO)NC(=O)C(C)(C)NC1=O [Example 307] (cyclo([AEF](Isonicotinoyl)[4Pal][Phe(4-COOH)]G[Pro(cis-4-F)][Trp(βS-Me,4-F)][Aib]SW[Aib][Ala(pyrimidin-5-yl)]Q[Dab]G[dPro(4R-(4-pyridylmethyl))])) | 10.74 |  |
| CC(=O)NCCOc1ccc(C[C@@H]2NC(=O)[C@H]3C[C@@H](Cc4ccncc4)CN3C(=O)CNC(=O)[C@H](CCN)NC(=O)[C@H](CCC(N)=O)NC(=O)[C@H](CC3CCOCC3)NC(=O)[C@@](C)(CO)NC(=O)[C@H](Cc3c[nH]c4ccccc34)NC(=O)[C@H](CO)NC(=O)C(C)(C)NC(=O)[C@H]([C@@H](C)c3c[nH]c4cccc(F)c34)NC(=O)[C@@H]3C[C@H](F)CN3C(=O)CNC(=O)[C@H](Cc3ccc(C(=O)O)cc3)NC(=O)[C@H](CC34CC(C3)C4)NC2=O)cc1 [Example 375] (cyclo([AEF](Ac)[Ala(1-bicyclo(1.1.1)pentyl)][Phe(4-COOH)]G[Pro(cis-4-F)][Trp(βS-Me,4-F)][Aib]SW[d(αMeS)][Ala(4-THP)]Q[Dab]G[dPro(4R-(4-pyridylmethyl))])) | 10.60 |  |
| CC(=O)N1CCC(C(=O)NCCOc2ccc(C[C@@H]3NC(=O)[C@H]4C[C@@H](Cc5ccncc5)CN4C(=O)CNC(=O)[C@H](CCN)NC(=O)[C@H](CCC(N)=O)NC(=O)[C@H](Cc4cncnc4)NC(=O)C(C)(C)NC(=O)[C@H](Cc4c[nH]c5ccccc45)NC(=O)[C@H](CO)NC(=O)C(C)(C)NC(=O)[C@H]([C@@H](C)c4c[nH]c5cccc(F)c45)NC(=O)[C@@H]4C[C@H](F)CN4C(=O)CNC(=O)[C@H](Cc4ccc(C(=O)O)cc4)NC(=O)[C@H](Cc4ccncc4)NC3=O)cc2)CC1 [Example 302] (cyclo([AEF]([Inp-Ac])[4Pal][Phe(4-COOH)]G[Pro(cis-4-F)][Trp(βS-Me,4-F)][Aib]SW[Aib][Ala(pyrimidin-5-yl)]Q[Dab]G[dPro(4R-(4-pyridylmethyl))])) |  | 10.77 |
| C[C@@H](c1c[nH]c2cccc(F)c12)[C@@H]1NC(=O)[C@@H]2C[C@H](F)CN2C(=O)CNC(=O)[C@H](Cc2ccc(C(=O)O)cc2)NC(=O)[C@H](Cc2ccncc2)NC(=O)[C@H](Cc2ccc(-c3ccc(C(N)=O)cc3)cc2)NC(=O)[C@H]2C[C@@H](Cc3ccncc3)CN2C(=O)CNC(=O)[C@H](CCN)NC(=O)[C@H](CCC(N)=O)NC(=O)[C@H](CC2CCOCC2)NC(=O)[C@@](C)(CC(=O)O)NC(=O)[C@H](Cc2c[nH]c3ccccc23)NC(=O)[C@H](CO)NC(=O)C(C)(C)NC1=O [Example 296] (cyclo([Bip(4'-CONH2)][4Pal][Phe(4-COOH)]G[Pro(cis-4-F)][Trp(βS-Me,4-F)][Aib]SW[d(αMeD)][Ala(4-THP)]Q[Dab]G[dPro(4R-(4-pyridylmethyl))])) |  | 10.89 |
| C[C@@H](c1c[nH]c2cccc(F)c12)[C@@H]1NC(=O)[C@@H]2C[C@H](F)CN2C(=O)CNC(=O)[C@H](Cc2ccc(C(=O)O)cc2)NC(=O)[C@H](CC23CC(C2)C3)NC(=O)[C@H](Cc2ccc(-c3ccc(C(=O)O)cc3)cc2)NC(=O)[C@H]2C[C@@H](Cc3ccc(F)cc3)CN2C(=O)CNC(=O)[C@H](CCN)NC(=O)[C@H](CCC(N)=O)NC(=O)[C@H](CC2CCNCC2)NC(=O)[C@@](C)(CO)NC(=O)[C@H](Cc2c[nH]c3ccccc23)NC(=O)[C@H](CO)NC(=O)C(C)(C)NC1=O [Example 172] (cyclo([Bip(4'-COOH)][Ala(1-bicyclo(1.1.1)pentyl)][Phe(4-COOH)]G[Pro(cis-4-F)][Trp(βS-Me,4-F)][Aib]SW[d(αMeS)][Ala(piperidin-4-yl)]Q[Dab]G[dPro(4R-Bzl(4-F))])) | 10.80 |  |
| C[C@@H](c1c[nH]c2cccc(F)c12)[C@@H]1NC(=O)[C@@H]2C[C@H](F)CN2C(=O)CNC(=O)[C@H](Cc2ccc(C(=O)O)cc2)NC(=O)[C@H](Cc2ccncc2)NC(=O)[C@H](Cc2ccc(-c3ccc(Cl)cc3)cc2)NC(=O)[C@H]2C[C@@H](Cc3ccncc3)CN2C(=O)CNC(=O)[C@H](CCN)NC(=O)[C@H](CCC(N)=O)NC(=O)[C@H](Cc2cncnc2)NC(=O)[C@@](C)(CC(=O)O)NC(=O)[C@H](Cc2c[nH]c3ccccc23)NC(=O)[C@H](CO)NC(=O)C(C)(C)NC1=O [Example 344] (cyclo([Bip(4'-Cl)][4Pal][Phe(4-COOH)]G[Pro(cis-4-F)][Trp(βS-Me,4-F)][Aib]SW[d(αMeD)][Ala(pyrimidin-5-yl)]Q[Dab]G[dPro(4R-(4-pyridylmethyl))])) | 10.66 |  |
| C[C@@H](c1c[nH]c2cccc(F)c12)[C@@H]1NC(=O)[C@@H]2C[C@H](F)CN2C(=O)CNC(=O)[C@H](Cc2ccc(C(=O)O)cc2)NC(=O)[C@H](CC23CC(C2)C3)NC(=O)[C@H](Cc2ccc(-c3ccc(C(=O)O)cc3)cc2)NC(=O)[C@H]2C[C@@H](Cc3ccncc3)CN2C(=O)CNC(=O)[C@H](CO)NC(=O)[C@H](CCC(N)=O)NC(=O)[C@H](CC2CCNCC2)NC(=O)C(C)(C)NC(=O)[C@H](Cc2c[nH]c3ccccc23)NC(=O)[C@H](CO)NC(=O)C(C)(C)NC1=O [Example 180] (cyclo([Bip(4'-COOH)][Ala(1-bicyclo(1.1.1)pentyl)][Phe(4-COOH)]G[Pro(cis-4-F)][Trp(βS-Me,4-F)][Aib]SW[Aib][Ala(piperidin-4-yl)]QSG[dPro(4R-(4-pyridylmethyl))])) | 10.57 |  |
| C[C@@H]1NC(=O)C(C)(C)NC(=O)[C@H]([C@@H](C)c2c[nH]c3cccc(F)c23)NC(=O)[C@@H]2C[C@H](F)CN2C(=O)CNC(=O)[C@H](Cc2ccc(C(=O)O)cc2)NC(=O)[C@H](Cc2ccncc2)NC(=O)[C@H](Cc2ccc(-c3ncc(C(=O)O)cn3)cc2)NC(=O)[C@H]2C[C@@H](Cc3ccncc3)CN2C(=O)CNC(=O)[C@H](CCN)NC(=O)[C@H](CCC(N)=O)NC(=O)[C@H](Cc2ccncc2)NC(=O)C(C)(C)NC(=O)[C@H](Cc2c[nH]c3ccccc23)NC1=O [Example 85] (cyclo([Phe(4-(5-CO2H-2-pyrimidyl))][4Pal][Phe(4-COOH)]G[Pro(cis-4-F)][Trp(βS-Me,4-F)][Aib]AW[Aib][4Pal]Q[Dab]G[dPro(4R-(4-pyridylmethyl))])) | 10.13 |  |
| C[C@H](O)[C@@H]1NC(=O)[C@@](C)(Cc2ccccc2)NC(=O)[C@H](Cc2c[nH]c3ccccc23)NC(=O)[C@H](CO)NC(=O)C(C)(C)NC(=O)[C@H]([C@@H](C)c2c[nH]c3cccc(F)c23)NC(=O)[C@@H]2C[C@H](F)CN2C(=O)CNC(=O)[C@H](Cc2ccc(C(=O)O)cc2)NC(=O)[C@H](Cc2ccncc2)NC(=O)[C@H](Cc2ccc(-c3ccc(C(=O)O)cc3)cc2)NC(=O)[C@H]2C[C@@H](Cc3ccncc3)CN2C(=O)CNC(=O)[C@H](CCN)NC(=O)[C@H](CCC(N)=O)NC1=O [Example 257] (cyclo([Bip(4'-COOH)][4Pal][Phe(4-COOH)]G[Pro(cis-4-F)][Trp(βS-Me,4-F)][Aib]SW[d(αMeF)][aThr]Q[Dab]G[dPro(4R-(4-pyridylmethyl))])) |  | 10.68 |
| C[C@@H](c1c[nH]c2cccc(F)c12)[C@@H]1NC(=O)[C@@H]2C[C@H](F)CN2C(=O)CNC(=O)[C@H](Cc2ccc(C(=O)O)cc2)NC(=O)[C@H](Cc2ccncc2)NC(=O)[C@H](Cc2ccc([C@H]3CC[C@@H](C(=O)O)CC3)cc2)NC(=O)[C@H]2C[C@@H](Cc3ccc(F)cc3)CN2C(=O)CNC(=O)[C@H](CCN)NC(=O)[C@H](CCC(N)=O)NC(=O)[C@H](Cc2cncnc2)NC(=O)C2(CNC2)NC(=O)[C@H](Cc2c[nH]c3ccccc23)NC(=O)[C@H](CCC(=O)O)NC(=O)C(C)(C)NC1=O [Example 69] (cyclo([Phe(4-(cis-4-COOH-cHex))][4Pal][Phe(4-COOH)]G[Pro(cis-4-F)][Trp(βS-Me,4-F)][Aib]EW[3Aminoazetidine3carboxyl][Ala(pyrimidin-5-yl)]Q[Dab]G[dPro(4R-Bzl(4-F))])) | 10.52 |  |
| C[C@@H](c1c[nH]c2cccc(F)c12)[C@@H]1NC(=O)[C@@H]2C[C@H](F)CN2C(=O)CNC(=O)[C@H](Cc2ccc(C(=O)O)cc2)NC(=O)[C@H](CC23CC(C2)C3)NC(=O)[C@H](Cc2ccc(-c3ccc(C(=O)O)cc3)cc2)NC(=O)[C@H]2C[C@@H](Cc3ccncc3)CN2C(=O)CNC(=O)[C@H](CO)NC(=O)[C@H](CCC(N)=O)NC(=O)[C@H](Cc2cncnc2)NC(=O)[C@@](C)(CC(=O)O)NC(=O)[C@H](Cc2c[nH]c3ccccc23)NC(=O)[C@H](CO)NC(=O)C(C)(C)NC1=O [Example 158] (cyclo([Bip(4'-COOH)][Ala(1-bicyclo(1.1.1)pentyl)][Phe(4-COOH)]G[Pro(cis-4-F)][Trp(βS-Me,4-F)][Aib]SW[d(αMeD)][Ala(pyrimidin-5-yl)]QSG[dPro(4R-(4-pyridylmethyl))])) | 10.89 |  |
| C[C@@H](c1c[nH]c2cccc(F)c12)[C@@H]1NC(=O)[C@@H]2C[C@H](F)CN2C(=O)CNC(=O)[C@H](Cc2ccc(C(=O)O)cc2)NC(=O)[C@H](Cc2ccncc2)NC(=O)[C@H](Cc2ccc(-c3ccc(C(=O)O)cc3)cc2)NC(=O)[C@H]2C[C@@H](Cc3ccncc3)CN2C(=O)CNC(=O)[C@H](CCN)NC(=O)[C@H](CCC(N)=O)NC(=O)[C@H](Cc2ccncc2)NC(=O)C(C)(C)NC(=O)[C@H](Cc2c[nH]c3ccccc23)NC(=O)[C@H](CCC(=O)O)NC(=O)C(C)(C)NC1=O [Example 15] (cyclo([Bip(4'-COOH)][4Pal][Phe(4-COOH)]G[Pro(cis-4-F)][Trp(βS-Me,4-F)][Aib]EW[Aib][4Pal]Q[Dab]G[dPro(4R-(4-pyridylmethyl))])) | 10.46 |  |

— patent US20260242419A1, “A CYCLIC PEPTIDE FOR TRAPPING INTERLEUKIN-1 BETA” (Merck Sharp & Dohme LLC, priority 2023, published 2026)
